In patent publication US6730665B1, “Treatment of bone cancer” (Mayo Foundation for Medical Education and Research, priority 1999, dated 2004):

Assays:
[1] = test system: osteosarcoma cells and immortalized cell lines; assay: Cell survival, summary statement; type: cell-based
Description: (§1) MG63 and TE85 human osteosarcoma cells, and ROS 17/2.8 rat osteosarcoma cells were grown in DMEM/F12 phenol-red free medium containing 10% charcoal-stripped fetal bovine serum (FBS) and supplemented with 100 units/ml penicillin, 100 μg/ml streptomycin. Cell were incubated at 37° C. under 5% CO2 in air. Cells were plated at 5×10^4 cells per well into 24 well plates containing 1 ml of medium per well. After allowing the cells to attach overnight, media in the wells were replaced with fresh 1 ml medium. Human fetal osteoblasts (hFOB) cells and hFOB cells overexpressing estrogen receptor-alpha (hFOB-ERα) and estrogen receptor-beta (hFOB-ERβ) were grown in DMEM/F12 medium containing FBS, penicillin, streptomycin and Geneticin (300 μg/mL). The laboratory of Dr. B. L. Riggs at Mayo Clinic provided primary human osteoblast (HOB) cells. HOB cells were basically established from cancellous bone obtained as waste from orthopedic procedures and cultured as explants to generate the osteoblast-like monolayers as described by Borke et al., J. Clin. Endocrinol. Metab., 1988, 67:1299-1304. Human FOB cells and hFOB cells stably transfected with estrogen receptors (ERs) were maintained at 34° C., while all other cells were incubated at 37° C. under 5% CO2 in air.
Estrogen metabolites were diluted 1000 fold to give the final required concentrations in each well, and maintained for 72 hrs. The metabolites 2ME, 2OHE, and E2 were purchased from Sigma Chemical Company (St. Louis, Mo.). Stock solutions for each metabolite were made in 95% ethanol. Cell growth was measured by taking the viable cell count. At the end of metabolite treatment, cells were harvested, stained with trypan blue, and counted under a light microscope.

female Fisher 344 rats = assay: Cortical bone histomorphometry of rat tibia after oral 2ME; type: in vivo; conditions: 100 mg/kg/day oral gavage 13 days, mean ± SE
Description: All studies were approved by the Institutional Animal Care and Use Committee of the Mayo Clinic, Rochester, Minn. Rats were kept in plastic cages (3 per cage) under standard conditions of a 12 hr dark and 12 hr light cycle with food (Purina Laboratory rodent diet 5001, Ralston-Purina, St. Louis, Mo.) and water ad libitum. Rooms were maintained at a temperature of 24° C.
Fluorochromes were given […] tail vein.
Bone histomorphometry Histomorphometric measurements were performed with the OsteoMeasure Analysis System (OsteoMetrics, Atlanta, Ga.), which consisted of a Pentium 1133 computer coupled to a photomicroscope and image analysis system. […] The region of interest was traced, and the line lengths and area bounded by lines were calculated automatically.
Cortical bone measurements Ground transverse sections, cut at a site just proximal to the tibia-fibula synostosis, were prepared for histomorphometric analysis of cortical bone as described by Merriam, G. R. et al., Steroids, 1980, 136: 1-11. The following values were obtained as described by Turner, R. T. et al., Endocrinology, 1998, 139:3712-3720: 1) cross-sectional bone area; 2) medullary area: 3) cortical bone area: 4) periosteal perimeter; 5) endocortical perimeter; 6) periosteal bone formation rate, calculated as the area of bone between the declomycin label given at the start of the experiment and periosteal perimeter divided by the post-labeling period of 11 days; 7) periosteal mineral apposition rate, an index of osteoblast activity which is calculated as the periosteal bone formation rate divided by the label perimeter; and 8) periosteal label perimeter, an index of osteoblast number, defined as the periosteal perimeter labeled with calcein.
Statistical Analvses All values are expressed as mean±standard error (SE). Significant differences between groups were determined by Fisher's Protected Least Significant Difference post hoc test for multiple group comparisons following detection of significance by 1-way ANOVA. Significance was considered at p values ≦0.05.

MG63 osteosarcoma cells = assay: In situ apoptosis by TUNEL assay; type: cell-based, human; conditions: 10 μM, 48 h
Description: The effect of 2ME on in situ apoptosis was examined at the single cell level, based on labeling of DNA strand breaks using the TUNEL (terminal deoxynucleotidyl transferase-mediated dUTP nick end labeling) assay per manufacturer's protocol (Boehringer Mannheim, Indianapolis, Ind.). In this method, the ends of broken DNA strands were labeled with fluorescein-dUTP, and apoptotic cells in adherent cultures were detected by fluorescence microscopy. In brief, TUNEL assay was performed on coverslips of adherent cells contained in individual wells of a 24-well culture dish. Cells were washed once with phosphate buffered saline (PBS) and allowed to air dry before being fixed in 4% phosphate-buffered paraformaldehyde pH 7.4 (Sigma, St. Louis, Mo.) for 1 h at room temperature. Following a PBS rinse, endogenous peroxidase was blocked by incubating cells for 1 h at room temperature with 0.3% hydrogen peroxide in methanol (Sigmna). The latter was performed for the option of converting fluorescein-labeled cells to peroxidase-labeled cells and DAB chromogenic detection. Subsequent to a PBS rinse, cells were permeabilized on ice with incubation in 0.1% Triton X-100 in 0.1% sodium citrate for 2 min. Coverslips were rinsed twice in PBS before the addition of TUNEL reaction mixture (100 μl). […] Coverslips were rinsed 3 times with PBS before visualization by fluorescence microscopy. […]

[2] = test system: hFOB cells overexpressing estrogen receptor-beta (hFOB-ERβ); assay: Cell survival, viable cell count with trypan blue; type: cell-based, human; conditions: 2 μM, 72 h
Description: as §1, with “Human FOB cells and hFOB cells stably transfected with estrogen receptors (ERs) were maintained at 34° C., while all other cells were incubated at 37° C. under 5% CO2 in air.” left out
(§2) Estrogen metabolites were diluted 1000 fold to give the final required concentrations in each well, and maintained for 72 hrs. […] Cell growth was measured by taking the viable cell count. At the end of metabolite treatment, cells were harvested, stained with trypan blue, and counted under a light microscope.

[3] = test system: hFOB cells overexpressing estrogen receptor-alpha (hFOB-ERα); assay: Cell survival, viable cell count with trypan blue; type: cell-based, human; conditions: 2 μM, 72 h
Description: as §1, with “Human FOB cells and hFOB cells stably transfected with estrogen receptors (ERs) were maintained at 34° C., while all other cells were incubated at 37° C. under 5% CO2 in air.” left out
as §2

COc1cc2c(cc1O)CC[C@@H]1[C@@H]2CC[C@]2(C)[C@@H](O)CC[C@@H]12 [2ME, 2-methoxyestradiol]
reduction of cell survival ([1]; 2 μM, continuous treatment, 72 hours): 85%
reduction of cell survival ([1]; 20 μM): 95%
Bone Formation Rate (female Fisher 344 rats; cortical (periosteal) bone): 5.32 ± 0.47 mm^2 × 10^−3/day
Mineral Apposition Rate (female Fisher 344 rats; cortical (periosteal) bone): 1.34 ± 0.06 μm/day
Cortical Area (female Fisher 344 rats; cortical bone, tibia): 2.28 ± 0.03
Cross-sectional area (female Fisher 344 rats; cortical bone, tibia): 2.98 ± 0.04 mm^2
Medullary Area (female Fisher 344 rats; cortical bone, tibia): 0.70 ± 0.02 mm^2
TUNEL staining (MG63 osteosarcoma cells): Positive staining
cell numbers reduced to [2]: 24%
cell numbers reduced to [3]: 24%
